We go through ten molecules from ChEMBL document CHEMBL1201862, “PubChem BioAssay data set” (2004).

Some test systems named below: 786-0; A549; BT-549; CAKI-1; DU-145; HL-60; IGROV-1; LOX IMVI; MDA-MB-231; MDA-N; NCI/ADR-RES; OVCAR-4; OVCAR-5; PC-3; SF-268; SK-MEL-2; SK-MEL-5; T47D; UACC-62.
Holding throughout (experiment): NCI-60 cell line screen, 48 h

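How tested: cells in 96-well plates exposed to compound for 48 hours at five concentrations. The concentration for 50% growth inhibition is given as GI50.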 Activity calls are given as the source filed them. No stated cut-off is given here; in the data, active = GI50 up to about 1.1 µM and inactive = higher. Where a SMILES comes first, the peptide text is derived from it. [ ]: non-standard residue; d: D form. The star is where a group is joined. Cbz = O=C(OCc1ccccc1)*; Aib = CC(C)(N)C(=O)O; OBn = c1ccc(CO*)cc1

With `CC(NC(=O)C(C)(C)NC(=O)C(CC(=O)OCc1ccccc1)NC(=O)OCc1ccccc1)C(N)=O` (stereo not given) (Cbz-Asp(OBn)-[Aib]-Ala-NH2; configuration not given here), the GI50 with 786-0, with A549, in the assay on BT-549, in the assay with CAKI-1, in the assay on DU-145 and in the assay with HL-60 was > 100 µM (inactive) each time. For the same molecule, the GI50 with IGROV-1, in the assay with LOX IMVI, in the assay on MDA-MB-231, in the assay with MDA-N, in the assay on NCI/ADR-RES and in the assay on OVCAR-4 was > 100 µM (inactive) each time. In addition, the GI50 in the assay with OVCAR-5, in the assay with PC-3, in the assay with SF-268, in the assay on SK-MEL-2, with SK-MEL-5 and in the assay on T47D was > 100 µM (inactive) in each case. Moreover, the GI50 in the assay with UACC-62 was > 100 µM (inactive).

For `CN(C)CCCn1c(Cn2nc3ccccc3n2)nc2cc(C(F)(F)F)ccc21`, the GI50 is 19.3 µM (inactive) with 786-0; 41 µM (inactive) in the assay on A549; 16.8 µM (inactive) in the assay on BT-549; 32.6 µM (inactive) in the assay on CAKI-1; 29.7 µM (inactive) with DU-145; 1.69 µM (inactive) in the assay on HL-60. Moreover, the GI50 with IGROV-1 was 29 µM (inactive); in the assay on LOX IMVI, 16.9 µM (inactive); in the assay with MDA-MB-231, 28.9 µM (inactive); in the assay with MDA-N, 18.8 µM (inactive); with NCI/ADR-RES, 23.4 µM (inactive); in the assay with OVCAR-4, 33.4 µM (inactive). The GI50 in the assay on OVCAR-5 was > 100 µM (inactive); in the assay on PC-3, 31.6 µM (inactive); with SF-268, 42 µM (inactive); with SK-MEL-2 it was 19.4 µM (inactive); in the assay on SK-MEL-5, 16.6 µM (inactive); in the assay on T47D, 15.2 µM (inactive). For the same molecule, the GI50 in the assay with UACC-62 is 19.2 µM (inactive).

Turning to `CC1=C2CC(C)(C)/C=C\C(=O)/C(C)=C\C3=C[C@H](C)C[C@]3(O2)C1=O`, the GI50 with 786-0 was 0.516 µM (active); in the assay on A549, 4.47 µM (inactive); in the assay on BT-549 it was 0.518 µM (active); in the assay with CAKI-1, 0.255 µM (active); with DU-145 it was 4.67 µM (inactive); in the assay with HL-60, 0.139 µM (active). For the same molecule, the GI50 in the assay on IGROV-1 was 1.56 µM (inactive); with LOX IMVI, 0.741 µM (active); with MDA-MB-231, 1.05 µM (active); in the assay with MDA-N it was 0.914 µM (active); with NCI/ADR-RES, 0.537 µM (active); with OVCAR-4 it was 1.52 µM (inactive). The GI50 in the assay on OVCAR-5 is 1.32 µM (inactive); in the assay with PC-3, 2.02 µM (inactive); with SF-268, 6.78 µM (inactive); in the assay with SK-MEL-2, 2.4 µM (inactive); with SK-MEL-5, 1.48 µM (inactive); in the assay with T47D, 0.544 µM (active). The GI50 with UACC-62 is 1.05 µM (active).

On to `CCc1c[n+]2c(cc1C1=CN3c4ccccc4[C@]45CCN6C/C(=C/CO)[C@H](C[C@H]64)[C@@H]([C@@H]1O)[C@H]35)-c1[nH]c3ccccc3c1CC2`, for which the GI50 with 786-0, in the assay with A549, in the assay with BT-549, in the assay with CAKI-1, in the assay on DU-145 and in the assay on HL-60 was > 50 µM (inactive) each time. For the same molecule, the GI50 in the assay with IGROV-1, with LOX IMVI, in the assay on MDA-MB-231, with MDA-N, in the assay on NCI/ADR-RES and with OVCAR-4 was > 50 µM (inactive) throughout. The GI50 in the assay on OVCAR-5, in the assay with PC-3, in the assay on SF-268, with SK-MEL-2, in the assay on SK-MEL-5 and in the assay on T47D was > 50 µM (inactive) in each case. For the same molecule, the GI50 with UACC-62 is > 50 µM (inactive).

Take `COc1c(C)c(OC)c(C(=O)CC(C)C)c(OC)c1C`: the GI50 was > 100 µM (inactive) in the assay with 786-0; > 100 µM (inactive) with A549; > 100 µM (inactive) with BT-549; > 100 µM (inactive) in the assay on CAKI-1; > 100 µM (inactive) with DU-145; 7.01 µM (inactive) with HL-60. Also, the GI50 in the assay on IGROV-1 was > 100 µM (inactive); with LOX IMVI, 62.7 µM (inactive); in the assay on MDA-MB-231, > 100 µM (inactive); in the assay on MDA-N it was > 100 µM (inactive); in the assay on NCI/ADR-RES it was 52.6 µM (inactive); in the assay with OVCAR-4, 23.6 µM (inactive). The GI50 is > 100 µM (inactive) in the assay with OVCAR-5; 52.4 µM (inactive) with PC-3; > 100 µM (inactive) in the assay with SF-268; > 100 µM (inactive) in the assay on SK-MEL-2; 40.3 µM (inactive) in the assay with SK-MEL-5; 68.1 µM (inactive) in the assay on T47D. Besides, the GI50 in the assay with UACC-62 was > 100 µM (inactive).

As for `O=C(O)CCc1ccc(-c2ccccc2)[nH]1`, the GI50 with 786-0, in the assay with A549, with BT-549, in the assay on CAKI-1, with DU-145 and with HL-60 was > 100 µM (inactive) each time. Further, the GI50 in the assay on IGROV-1, with LOX IMVI, in the assay on MDA-MB-231, in the assay with MDA-N, in the assay with NCI/ADR-RES and in the assay on OVCAR-4 was > 100 µM (inactive) each time. The GI50 in the assay with OVCAR-5, in the assay on PC-3, in the assay on SF-268, with SK-MEL-2, with SK-MEL-5 and in the assay with T47D was > 100 µM (inactive) throughout. For the same molecule, in the assay with UACC-62, the GI50 was > 100 µM (inactive).

`CC[P+](C#Cc1ccccc1)(c1ccccc1)c1ccccc1`: the GI50 with 786-0 was 1.57 µM (inactive); in the assay with A549 it was 3.08 µM (inactive); with BT-549 it was 1.31 µM (inactive); in the assay with CAKI-1 it was 9.66 µM (inactive); with DU-145, 3.46 µM (inactive); in the assay with HL-60 it was 0.324 µM (active). In addition, the GI50 in the assay on IGROV-1 was 3.1 µM (inactive); in the assay on LOX IMVI it was 1.82 µM (inactive); with MDA-MB-231 it was 3.18 µM (inactive); with MDA-N, 1.56 µM (inactive); with NCI/ADR-RES it was 38.9 µM (inactive); in the assay on OVCAR-4, 3.15 µM (inactive). For the same molecule, the GI50 with OVCAR-5 was 4.06 µM (inactive); in the assay on PC-3, 2.3 µM (inactive); in the assay on SF-268 it was 3.03 µM (inactive); with SK-MEL-2, 1.98 µM (inactive); in the assay with SK-MEL-5 it was 1.22 µM (inactive); with T47D it was 2.18 µM (inactive). For the same molecule, the GI50 with UACC-62 is 1.63 µM (inactive).

Consider `COc1ccc(CNC(C)C(=O)O)cc1` (stereo not given), for which the GI50 with 786-0, with A549, with BT-549, with CAKI-1, in the assay with DU-145 and in the assay with HL-60 was > 100 µM (inactive) throughout. For the same molecule, the GI50 in the assay on IGROV-1, in the assay with LOX IMVI, in the assay with MDA-MB-231, in the assay with MDA-N, with NCI/ADR-RES and in the assay with OVCAR-4 was > 100 µM (inactive) in each case. Moreover, the GI50 with OVCAR-5, with PC-3, in the assay with SF-268, in the assay on SK-MEL-2, in the assay with SK-MEL-5 and with T47D was > 100 µM (inactive) each time. Moreover, the GI50 in the assay on UACC-62 is > 100 µM (inactive).

Turning to `C=C1CN(C2=NCCO2)C1`, the GI50 with 786-0, in the assay with A549, in the assay on BT-549, in the assay with CAKI-1, with DU-145 and in the assay with HL-60 was > 100 µM (inactive) in each case. The GI50 in the assay with IGROV-1, with LOX IMVI, with MDA-MB-231, in the assay with MDA-N, in the assay with NCI/ADR-RES and in the assay with OVCAR-4 was > 100 µM (inactive) throughout. For the same molecule, the GI50 in the assay on OVCAR-5, in the assay with PC-3, in the assay with SF-268, in the assay with SK-MEL-2, in the assay on SK-MEL-5 and with T47D was > 100 µM (inactive) each time. In the assay with UACC-62, the GI50 was > 100 µM (inactive).

As for `COc1ccc2c(c1OC)C(=O)O[C@@H]2[C@H]1c2cc3c(cc2CCN1C)OCO3`, the GI50 in the assay on 786-0, with A549, in the assay with BT-549, in the assay with CAKI-1, in the assay on DU-145 and with HL-60 was > 100 µM (inactive) in each case. The GI50 in the assay on IGROV-1, in the assay with LOX IMVI, with MDA-MB-231, with MDA-N, in the assay on NCI/ADR-RES and in the assay on OVCAR-4 was > 100 µM (inactive) each time. For the same molecule, the GI50 with OVCAR-5, in the assay with PC-3, with SF-268, with SK-MEL-2, with SK-MEL-5 and in the assay with T47D was > 100 µM (inactive) each time. The GI50 in the assay on UACC-62 was > 100 µM (inactive).
